Assays:
[1] = test system: duodenal mucosal alkaline secretion; assay: Test C: duodenal mucosal alkaline secretion assay in barbiturate-anaesthetised rats; format: in vivo, rat; settings: co-administration with title compounds of the Examples
Text: Duodenal Mucosal Alkaline Secretion Assay
Compounds were exposed to the duodenal mucosa in barbiturate-anaesthetised rats prepared for in situ titration of duodenal mucosal alkaline secretion, according to the methodology described by Flemström et al in Am. J. Physiol. (1982) 243, G348.

AT2 receptor = target: T1, AT2 receptor (Sus scrofa, UniProt A0A4X1W622); settings: read-out: dissociation constant (Kd), AT2 receptor; Scatchard analysis, porcine myometrial membranes, [L]=0.057 nM
T1 sequence (A0A4X1W622 1-362): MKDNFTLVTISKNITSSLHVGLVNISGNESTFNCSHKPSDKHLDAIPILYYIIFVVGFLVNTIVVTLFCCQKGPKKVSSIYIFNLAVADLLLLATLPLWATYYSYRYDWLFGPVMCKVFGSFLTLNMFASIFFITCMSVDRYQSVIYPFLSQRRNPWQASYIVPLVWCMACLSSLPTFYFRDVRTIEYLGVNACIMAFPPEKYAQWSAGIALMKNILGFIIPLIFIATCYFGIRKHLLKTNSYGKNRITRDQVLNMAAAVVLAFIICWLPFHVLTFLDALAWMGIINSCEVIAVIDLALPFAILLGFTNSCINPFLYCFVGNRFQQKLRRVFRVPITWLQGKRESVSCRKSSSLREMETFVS
Procedure: Myometrial membranes were prepared from porcine uteri according to the method by Nielsen et al (Clin. Exp. Pharm. Phys. (1997) 24, 309). […] Samples were incubated at 25° C. for 1 h, and binding was terminated by filtration through Whatman GF/B glass-fiber filter sheets using a Brandel cell harvester. The filters were washed with 3×3 mL of Tris-HCl (pH 7.4) and transferred to tubes. The radioactivity was measured using a gamma counter. […] The binding data were best fitted with a one-site fit. All experiments were performed at least in triplicate.

Kd (AT2 receptor) | Compound | effect of co-administration on the stimulation of mucosal alkalisation by the title compounds [1]
– | Cc1cc(Cn2cnc3c2C[C@@H](C(=O)O)N(C(=O)C(c2ccccc2)c2ccccc2)C3)ccc1N(C)C [PD123319] | blocked
0.7 ± 0.1 nM | Asp^1-Arg^2-Val^3-Tyr^4-Ile^5-His^6-Pro^7-Phe^8 [Ang II] | –

Source: US8357710B2, “Bicyclic angiotensin II agonists” (Vicore Pharma AB, priority 2005, dated 2013)
